Results taken from patent publication US5789425A, “Imidazolidinone derivatives, their acid adducts and therapeutic drugs for senile dementia” (Kyorin Pharmaceutical Co., Ltd., priority 1993, dated 1998).

Experiments:
[1] = target: T1, M1 type muscarinic cholinergic receptor (Rattus norvegicus, UniProt P08482); assay: Radioligand binding experiment to M1 type muscarinic cholinergic receptor ([3H]-pirenzepine); conditions: 1 nM [3H]-pirenzepine, rat brain synaptosome membrane, 60 minutes at 25° C.; read-out: [^3 H]-PZ (M1) IC50
T1 construct: crude synaptosome membrane specimen prepared from all brains (except cerebellum and brain stem) of rat; from tissue; host or cells: rat whole brain without cerebellum and brain stem, crude synaptosomal membranes
T1 sequence (P08482 1-460): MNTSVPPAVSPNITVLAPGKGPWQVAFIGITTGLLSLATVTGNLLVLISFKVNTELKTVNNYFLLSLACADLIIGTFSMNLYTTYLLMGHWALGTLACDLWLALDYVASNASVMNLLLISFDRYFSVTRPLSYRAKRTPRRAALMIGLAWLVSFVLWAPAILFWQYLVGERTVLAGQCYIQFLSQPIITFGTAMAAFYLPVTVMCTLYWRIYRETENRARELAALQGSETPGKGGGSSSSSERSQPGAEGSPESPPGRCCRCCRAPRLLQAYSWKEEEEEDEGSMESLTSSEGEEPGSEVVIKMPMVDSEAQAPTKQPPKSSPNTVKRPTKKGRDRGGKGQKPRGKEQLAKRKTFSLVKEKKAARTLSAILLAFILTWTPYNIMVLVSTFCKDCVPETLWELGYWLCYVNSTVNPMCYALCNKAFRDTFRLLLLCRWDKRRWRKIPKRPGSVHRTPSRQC
Method: 1) Radioligand binding experiment to M1 type muscarinic cholinergic receptor
Method: To a crude synaptosome membrane specimen prepared from all brains (except cerebellum and brain stem) of rat, [^3 H]-pirenzepine ([^3 H]-PZ, final concentration: 1 nM) and testing compound were added and the mixture was incubated for 60 minutes at 25° C. After stopped the reaction by filtered with suction, the radioactivity on filter was measured with liquid scintillation counter. The specific binding level of [^3 H]-pirenzepine was determined by subtracting the non-specific binding level in the presence of atropine (1 μM) from total binding level. Putting the [^3 H]-pirenzepine binding in the absence of testing compound on 100, the concentration of compound to decrease by 50% (IC50 value) was made an index of the binding activity of compound to M1 muscarinic receptor (refer to: J. A. D. M. Toner et al, Life Science, 1987, 40, 1981-1987).

[2] = test system: M1 and M2 muscarinic receptors; assay: Selectivity to M1 receptor (ratio of IC50 values of M1 and M2 binding experiments); design: species or system rat
Method: 3) Selectivity to M1 receptor
This was determined from the ratio of IC50 values of testing compound obtained from the binding experiments of M1 and M2 muscarinic receptors. [formula]

[3] = test system: pirenzepine-induced amnesia; assay: Testing on the pirenzepine-induced amnesia (step-through type passive avoidance); assay type: in vivo, Std:ddy strain male mice; conditions: orally 60 minutes before acquisition trial; for Reaction latency Mean ± S.E.: retention trial 24 hours later, maximum 300 seconds, pirenzepine-treated mice
Text: In vivo pharmacological test
Testing on the pirenzepine-induced amnesia
For the experiment animals, Std:ddy strain male mice with body weight of 24 to 33 g (age in week: 5) (Nippon SLC) were used. For the device, a step-through type passive avoidance apparatus (made by Ohara Medical Co., Ltd.) consisting of two light and dark rooms was used. In the acquisition trial, mouse was placed in the light room and, 10 seconds later, the partitive guillotine door was opened. As soon as the mouse moved into the dark room, the guillotine door was closed and electric shock of 43 to 44 V was given for 1 second through the metal grid bars of the floor. The retention trial was conducted 24 hours later since then. […] The induction of amnesia was performed by fixing a mouse at prone position without anesthetization at 20 minutes before learning acquisition trial and injecting pirenzepine (10 μg/2 μl/mouse bilaterally into cerebral ventricles using a microsyringe. Moreover, a group not to administered with pirenzepine before acquisition trial (non-amnesia comparison group) was also provided. The testing compound was administered orally at 60 minutes before acquisition trial. The improvement rate was calculated according to following equation and the results are shown in Table 8 (refer to: M. P. Callfield et al, J. Pharm. Pharmacol.) 1983, 35, 131-132). [formula]

[4] = target: T2, M2 type muscarinic cholinergic receptor (Rattus norvegicus, UniProt P10980); assay: Radioligand binding experiment to M2 type muscarinic cholinergic receptor ([3H]-QNB); conditions: 0.1 nM [3H]-QNB, rat brain stem synaptosome membrane; read-out: [^3 H]-QMB (M2) IC50
T2 construct: crude synaptosome membrane specimen was prepared from the brain stem (medulla oblongata-pons) of rat; from tissue; host or cells: rat brain stem (medulla oblongata-pons), crude synaptosomal membranes
T2 sequence (P10980 1-466): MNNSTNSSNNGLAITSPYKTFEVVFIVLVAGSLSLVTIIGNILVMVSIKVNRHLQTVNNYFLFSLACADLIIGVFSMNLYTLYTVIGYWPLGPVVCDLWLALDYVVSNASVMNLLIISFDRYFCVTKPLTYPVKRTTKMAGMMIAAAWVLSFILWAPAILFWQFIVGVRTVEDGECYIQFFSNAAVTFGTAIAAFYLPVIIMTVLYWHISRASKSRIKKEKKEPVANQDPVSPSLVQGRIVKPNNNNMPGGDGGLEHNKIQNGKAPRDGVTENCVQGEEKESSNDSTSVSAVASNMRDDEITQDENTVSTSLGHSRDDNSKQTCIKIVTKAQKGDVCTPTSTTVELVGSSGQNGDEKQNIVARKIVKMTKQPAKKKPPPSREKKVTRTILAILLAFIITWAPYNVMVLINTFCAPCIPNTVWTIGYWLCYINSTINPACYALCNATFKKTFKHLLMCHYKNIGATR

Structure (SMILES): O=C1N(C2=CCCN(Cc3ccccc3)C2)CCN1c1ccc([N+](=O)[O-])cc1 [Example 4, 1-[3-(1-Phenylmethyl-1,2,5,6-tetrahydropyridyl)]-3-(4-nitrophenyl)-2-imidazolidinone]
- IC50 [1]: 530 nM
- IC50 (M2)/C50 (M1) [2]: > 11.3
- Improvement rate ([3]; 3 mg/kg): 43.6%
- Reaction latency Mean ± S.E. ([3]; 3 mg/kg): 71.1 ± 30.2 s
- IC50 [4]: > 6000 nM

Structure (SMILES): O=C1N(C2=CCCN(Cc3ccccc3)C2)CCN1c1ccc(Cl)cc1 [Example 17, 1-[3-(1-Phenylmethyl-1,2,5,6-tetrahydropyridyl)]-3-(4-chlorophenyl)-2-imidazolidinone]
- IC50 [1]: 370 nM
- IC50 (M2)/C50 (M1) [2]: > 16.2
- Improvement rate ([3]; 1 mg/kg): 82.7%
- Reaction latency Mean ± S.E. ([3]; 1 mg/kg): 189.9 ± 52.8 s
- Improvement rate ([3]; 3 mg/kg): 68.8%
- Reaction latency Mean ± S.E. ([3]; 3 mg/kg): 164.2 ± 37.5 s
- IC50 [4]: > 6000 nM
